Some test systems named below: Escherichia coli C600; Escherichia coli 1057; Escherichia coli ML-35p; Escherichia coli 214; Escherichia coli D31; Escherichia coli UTI89.
Common to all, as to assay: ≥ marks a high value that may be exact or a test limit, other limits are often not marked, values filed in µg/mL are converted to µM
In experiment [1] the test system is Staphylococcus aureus 209P.
For experiment [2], the system named is Bacillus subtilis VKM B-501.
Experiment [3] has as its system Escherichia coli BL21(DE3).
Experiment [4] has as its system Enterococcus faecalis ATCC 29212.
In experiment [5] the test system is Enterobacter cloacae 4172.
Experiment [6] deals with Staphylococcus aureus ATCC 29213.
In experiment [7] the test system is Micrococcus luteus VKM B-1314.
Experiment [8] concerns Klebsiella pneumoniae ATCC 700603.
Experiment [9] concerns Staphylococcus aureus ATCC 27660.
In experiment [10] the test system is Pseudomonas aeruginosa ATCC 10145.
For experiment [11], the system named is Salmonella enterica subsp. enterica serovar Typhimurium ATCC 14028.
Experiment [12] deals with Staphylococcus epidermidis.
Experiment [13] deals with Escherichia coli K12 MG1655.

Converted amounts (≈) assume the structure as drawn. “And” between values parts separate entries of the source, which are not always exact repeats. Equal values may be shown once.

One may read the MIC as the lowest concentration found to suppress growth. The low end stands for inhibition by little substance, the high end for a need for much substance. As to `CC[C@H](C)[C@H](NC(=O)[C@H](C)NC(=O)[C@H](CCCCN)NC(=O)[C@H](CCCN=C(N)N)NC(=O)[C@H](CC(C)C)NC(=O)[C@H](Cc1ccccc1)NC(=O)[C@H](CCCCN)NC(=O)[C@H](CCCCN)NC(=O)[C@@H](NC(=O)[C@H](CC(C)C)NC(=O)[C@H](CCCCN)NC(=O)CNC(=O)[C@H](Cc1ccccc1)NC(=O)[C@H](CC(C)C)NC(=O)CN)[C@@H](C)CC)C(=O)N[C@@H](CO)C(=O)N[C@@H](Cc1ccc(O)cc1)C(=O)N[C@@H](C)C(=O)N[C@H](C(=O)N[C@@H](CCCCN)C(=O)N[C@@H](CCCCN)C(=O)N[C@@H](C)C(=O)N[C@@H](CCCN=C(N)N)C(=O)NCC(=O)N[C@@H](CCCCN)C(=O)N[C@@H](Cc1cnc[nH]1)C(=O)O)C(C)C` [GLFGKLIKKFLRKAISYAVKKARGKH], the values for the minimal inhibitory concentration (MIC) (in [1]; in [2]; with Escherichia coli C600) were 1.5 µM (≈ 4.44 µg/mL), 0.7 µM (≈ 2.07 µg/mL) and 3 µM (≈ 8.88 µg/mL), respectively.

`CC[C@H](C)[C@H](NC(=O)[C@@H]1CCCN1C(=O)CNC(=O)[C@@H](NC(=O)[C@H](Cc1ccccc1)NC(=O)[C@@H]1CCCN1C(=O)CNC(=O)[C@@H](NC(=O)[C@H](CCCCN)NC(=O)[C@H](Cc1cnc[nH]1)NC(=O)[C@H](Cc1c[nH]c2ccccc12)NC(=O)[C@H](CC(C)C)NC(=O)[C@H](CCCN=C(N)N)NC(=O)[C@H](CCCCN)NC(=O)[C@H](CC(C)C)NC(=O)[C@H](CCCCN)NC(=O)[C@H](CCCCN)NC(=O)[C@H](CCCN=C(N)N)NC(=O)[C@H](Cc1ccccc1)NC(=O)[C@H](CCCN=C(N)N)NC(=O)[C@H](CCCCN)NC(=O)[C@H](Cc1ccccc1)NC(=O)[C@H](CCCN=C(N)N)NC(=O)CN)C(C)C)C(C)C)C(=O)N[C@@H](CC(C)C)C(=O)N[C@@H](Cc1cnc[nH]1)C(=O)N[C@@H](Cc1ccc(O)cc1)C(=O)O` [GRFKRFRKKLKRLWHKVGPFVGPILHY]: the MIC was 0.06 µM (≈ 0.202 µg/mL) in [3]; 0.125 µM (≈ 0.421 µg/mL) against Escherichia coli 1057; 4 µM and 8 µM in experiment [4]; 0.06 µM (≈ 0.202 µg/mL) in the experiment with Escherichia coli ML-35p; 0.06 µM (≈ 0.202 µg/mL) against Escherichia coli 214; 0.06 µM and 0.125 µM in the experiment on Escherichia coli C600. Further, the minimal inhibitory concentration (MIC) is 0.125 µM and 0.25 µM in experiment [5]; 1 µM and 2 µM in experiment [6]; 0.25 µM and 0.5 µM in experiment [7].

On to `CC(C)C[C@H](NC(=O)[C@H](CCCCN)NC(=O)[C@H](CCCCN)NC(=O)[C@H](C)NC(=O)[C@H](CCCCN)NC(=O)[C@H](CCCCN)NC(=O)[C@H](C)NC(=O)CNC(=O)[C@H](CCCCN)NC(=O)[C@H](C)NC(=O)[C@H](Cc1c[nH]c2ccccc12)NC(=O)[C@H](C)NC(=O)[C@H](CCCCN)NC(=O)[C@H](C)NC(=O)[C@H](C)NC(=O)[C@H](CCCCN)NC(=O)[C@@H](N)CCCCN)C(=O)N[C@@H](C)C(=O)N[C@@H](CCCCN)C(=O)NCC(=O)N[C@@H](C)C(=O)NCC(=O)O` [KKAAKAWAKGAKKAKKLAKGAG], for which the MIC is 15 µM (≈ 33.2 µg/mL) against Escherichia coli D31, greater than 15 µM in experiment [8], 15 µM (≈ 33.2 µg/mL) in experiment [9] and 15 µM (≈ 33.2 µg/mL) in experiment [10].

For `CC[C@H](C)[C@H](NC(=O)[C@H](CCCCN)NC(=O)[C@H](CCC(N)=O)NC(=O)[C@H](Cc1c[nH]c2ccccc12)NC(=O)[C@@H](NC(=O)[C@H](CCCN=C(N)N)NC(=O)[C@@H](N)CCCCN)[C@@H](C)CC)C(=O)N[C@@H](CCCCN)C(=O)N[C@@H](CC(N)=O)C(=O)N[C@@H](Cc1ccccc1)C(=O)N[C@@H](Cc1ccccc1)C(=O)N[C@@H](CCC(N)=O)C(=O)N[C@@H](CCCCN)C(=O)N[C@@H](CC(C)C)C(=O)O` [KRIWQKIKNFFQKL], the minimum inhibitory concentration (MIC) in [11] is 25 µM (≈ 46.9 µg/mL); in experiment [12], 25 µM (≈ 46.9 µg/mL); in [13] it was 6.25 µM (≈ 11.7 µg/mL); with Escherichia coli UTI89, 6.25 µM (≈ 11.7 µg/mL).

Source of the values: DBAASP.
